From patent publication US4687769A, “3-(3,3,3-trifluoropropenyl) cephalosporins” (Meiji Seika Kaisha, Ltd., priority 1984, dated 1987)
≈ marks a conversion by molar mass, not a printed value.

Assays:
Test in all cases: Minimum inhibitory concentration (MIC)
Type in all cases: cell-based
[1] = system: Escherichia coli NIHJ JC-2; settings: NIHJJC2, read-out: Minimum inhibitory concentrations (MIC)
From the text: (§1) The cephem compounds (I) of this invention and the salts or ester thereof are all novel compounds which are useful as antibacterial agent. To illustrate the utility of the new compound of this invention, we have determined and show below the minimum inhibitory concentrations of some representative examples of the new cephem compounds of this invention against growth of various bacteria in Table 1.

[2] = system: Klebsiella pneumoniae PCI-602; settings: PCI602, read-out: Minimum inhibitory concentrations (MIC)
From the text: as §1

[3] = system: Proteus mirabilis GN-79; settings: GN79, read-out: Minimum inhibitory concentrations (MIC)
From the text: as §1

[4] = system: Proteus rettgeri GN-624; settings: Providencia rettgeri, GN624, read-out: Minimum inhibitory concentrations (MIC)
From the text: as §1

[5] = system: Proteus vulgaris GN-76; settings: GN76, read-out: Minimum inhibitory concentrations (MIC)
From the text: as §1

[6] = system: Pseudomonas cepacia M-0527; settings: Burkholderia cepacia, M0527, read-out: Minimum inhibitory concentrations (MIC)
From the text: as §1

[7] = system: Salmonella typhimurium LT-2; settings: Salmonella enterica, read-out: Minimum inhibitory concentrations (MIC)
From the text: as §1

[8] = system: Serratia marcescens No. 1; settings: read-out: Minimum inhibitory concentrations (MIC)
From the text: as §1

[9] = system: Staphylococcus aureus 209P JC-1; settings: read-out: Minimum inhibitory concentrations (MIC)
From the text: as §1

[10] = system: Staphylococcus aureus Smith; settings: read-out: Minimum inhibitory concentrations (MIC)
From the text: as §1

Compound | MIC [1] [µg/mL] | MIC [2] [µg/mL] | MIC [3] [µg/mL] | MIC [4] [µg/mL] | MIC [5] [µg/mL] | MIC [6] [µg/mL] | MIC [7] [µg/mL] | MIC [8] [µg/mL] | MIC [9] [µg/mL] | MIC [10] [µg/mL]
CO/N=C(\C(=O)NC1C(=O)N2C(C(=O)O)=C(/C=C/C(F)(F)F)CSC12)c1csc(N)n1 (stereo not drawn) [Compound (B), 7-[2-methoxyimino-2-(2-aminothiazol-4-yl)acetamido]-3-(3,3,3-trifluoropropenyl)-3-cephem-4-carboxylic acid (syn-isomer, trans-isomer)] | 0.39 (≈ 0.817 µM) | 0.39 (≈ 0.817 µM) | 0.39 (≈ 0.817 µM) | 1.56 (≈ 3.27 µM) | 0.2 (≈ 0.419 µM) | 6.25 (≈ 13.1 µM) | 0.2 (≈ 0.419 µM) | 0.39 (≈ 0.817 µM) | 0.39 (≈ 0.817 µM) | 0.78 (≈ 1.63 µM)
CO/N=C(\C(=O)NC1C(=O)N2C(C(=O)O)=C(/C=C\C(F)(F)F)CSC12)c1csc(N)n1 (stereo not drawn) [Compound (A), 7-[2-methoxyimino-2-(2-aminothiazol-4-yl)acetamido]-3-(3,3,3-trifluoropropenyl)-3-cephem-4-carboxylic acid (syn-isomer, cis-isomer)] | 0.78 (≈ 1.63 µM) | 0.39 (≈ 0.817 µM) | 0.39 (≈ 0.817 µM) | 3.13 (≈ 6.56 µM) | 0.2 (≈ 0.419 µM) | 6.25 (≈ 13.1 µM) | 0.39 (≈ 0.817 µM) | 0.2 (≈ 0.419 µM) | 0.2 (≈ 0.419 µM) | 0.39 (≈ 0.817 µM)
